Data as given in patent publication US20020127228A1, “PGT and apoptosis” (WELFIDE CORPORATION, priority 1998, published 2002).

Columns and labels:
[1] = system: rat cerebral cortical neurons; experiment: Apoptosis induced by amyloid beta peptide in rat cerebral cortical neurons, Hoechst 33342; type: cell-based
Method: The cortex region of embryonic day 17 or 18 rat cerebrum was extracted on ice. Cells were dispersed using a neuron dispersal solution (Sumilon) after sectioning. Afterwards, cells were dispersed to a density of 1.5×10^5 cells/cm^2 in a culturing flask that was coated with polyethyleneimine beforehand. After 4 days of culturing, the following experiment was provided. Therefore, as the culture medium, Neurobasal medium (Gibco) adding with B27 supplement (1/50 volume), 2-mercaptoethanol (27.5 μM), L-glutamic acid (25 μM), and glutamine (0.5 mM) was used.
Amyloid beta peptide 25-35 (Aβ25-35) was dissolved in distilled water to a concentration of 1 mM, incubated for 1 week at about 37° C., and Aged-Aβ25-35 was prepared. The induction of apoptosis in neuron was performed by the replacement of the aforementioned culture medium (with the exception of L-glutamicacid) containing 10 μM Aged-Aβ25-35.
4) It was investigated that the suppressing effect of PGE1 on apoptosis induced by amyloid beta peptide. After dissolution of PGE1 in ethanol, when the aforementioned 2) Aged-Aβ25-35 was added to the culture medium, simultaneously PGE1 solution was added to it. The final concentration thereof was 1 μM.
Cells were washed with PBS (−) at 24 hrs after induction of apoptosis and fixed for 30 mins at room temperature using a 1% glutaraldehyde solution (in PBS). Next, cell were washed with PBS (−) two times and followed by incubation with 1 mM Hoechst 33342 solution (in PBS) for 2 mins. Afterwards, observation of nuclear chromatin morphology was conducted using a fluorescence microscope with 4 arbitrary visual fields. Normal cells and apoptotic cells (cell where chromatin fragmentation or condensation was appeared) were counted, and the ratio was calculated as the incidence of apoptosis. The n was 3.
6) The relationship between PGT inhibitors and apoptosis induced by amyloid beta peptide was investigated. BrCG, which is a PGT inhibitor, with a final concentration of 60 μM was added simultaneously with PGE1 but other manners were in accordance with the aforementioned ones in 1)-5).
It was investigated that the influence of PGT antisense on the inhibitory effect of PGE1 against apoptosis induced by amyloid beta peptide. PGT antisense was used as it is with regard to the oligonucleotide in Experiment 3. The addition concentration thereof was 1.5 μM. Incidence of apoptosis was performed in accordance with Experiment 5. Then was 3.
1) Drugs having an inhibitory activity against induction of apoptosis by amyloid beta peptide were investigated. After dissolving test drugs (PGE1, PGK1, PGK2, and bicyclo PGE2) in ethanol, when Aged-Aβ25-35 was added to the culture medium, simultaneously test drug solution were added to it. But other manners were in accordance with Experiment 5. Ratio of normal cells and apoptotic cells allowed calculation of the rate of inhibition of apoptosis induction.

PGT = target: T1, PGT (Rattus norvegicus, UniProt Q00910); experiment: Uptake of tritium-labelled PGE1 into differentiated PC12 cells through PGT; type: cell-based; details: tritium-labelled PGE1 0.1 μM, mean ± SEM
T1 construct: endogenous in cells; host or cells: differentiated PC12 cells
Method: 1) Differentiated PC12 cells and tritium-labelled PGE1 (added concentration: 0.1 μM) were subjected to 10 mins of incubation at 37° C. Afterwards, the cells were washed with ice-cold phosphate buffered saline containing 5 g/l of bovine serum albumin and next washed with ice-cold phosphate buffered saline. Then, radioactivity was measured. The amount of PGE1 uptake into PC12 cells was calculated.
2) Bromcresol green (hereinafter noted as “BrCG”), which is a PGT inhibitor, was placed together in the culture medium at the addition of PGE1. Afterwards, treatment was conducted in the same manner as mentioned in 1).
3) The antisense oligonucleotide specific to PGT cDNA was designed as follows:
Moreover, said antisense was thioate modified. Using Lipofectin (Gibco), PC12 underwent transfection during 2 days prior to the addition of PGE1. Afterwards, treatment was conducted in the same manner as mentioned in 1).

Amount of PGE1 uptake (PGT; 10 mins at 37° C., no BrCG (Table 3)): 73 ± 11 fmol/mg protein/10 mins | Amount of PGE1 uptake (PGT; no antisense (Table 4)): 78 ± 11 fmol/mg protein/10 mins
Structure (SMILES): CCCCC[C@H](O)/C=C/[C@H]1[C@H](O)CC(=O)[C@@H]1CCCCCCC(=O)O [PGE1, prostaglandin E1]
Effect on apoptosis induced by amyloid beta peptide (in words) [1]: suppressed apoptosis inducted by amyloid beta peptide | Incidence of apoptosis (%) ([1]; Experiment 5, PGE1 1 μM, 10 μM Aged-Aβ25-35, 24 hrs, n 3): 23 ± 2 % | Incidence of apoptosis (%) ([1]; Experiment 6, PGE1, Aged-Aβ25-35, n 3): 23 ± 2 % | Inhibition of apoptosis induction (%) ([1]; Experiment 7, test drug added with Aged-Aβ25-35): 38.2%
